This is an account of results in patent EP0089901A1, “New 2-oxo-1-pyrrolidineacetic acid esters, their methods of production and therapeutic compositions containing the same” (PRODES S.A., priority 1982, dated 1983).

The subject of one data set is anesthetized dogs. Description: Electromagnetic blood flow measurement (vertebral/cerebral blood flow). The data set is classed as in vivo. To be noted: vertebral blood flow. The protocol:
After orotraqueal intubation, artificial respiration with normal air was instituted using a Manley Pulmovent respirator. The correct ventilation of the dogs was checked after all the surgical procedures by determining the p02, pC02, and pH in arterial blood samples, as well as several times during the experiment by means of an Astrup apparatus. Blood pressure was measured in left saphenous artery by means of a Bell & Howell pressure transducer, and the heart rate by means of a Beckman ECG device. Recordings were made on an ink-writing Beckman polygraph. Left saphenous vein and right saphenous artery were cannulated with polyethylene catheters for drug administration and blood collection respectively.
Vertebral blood flow was measured by a non-cannulating electro-magnetic flowmeter (Carolina Medical Electronics) placed in the vertebral artery.
The Carolina digital flowmeter was connected to an Omniscribe Houston Instruments plotter.
Piracetam and nicotinic acid were used as control drugs.

Data set [1] relates to animals. In words: Unspecific protection against lethality: hypoxia-hypobara (decompression), survival time. The data set is classed as in vivo. Conditions: survival time under decompression. The source says: We have chosen the hypoxia-hypobara : the decompression kills the animals, because of the lack of 02.
Another data set concerns mouse. In words: Unspecific protection against lethality: gasping time after quick decapitation. To be noted: gasping time after decapitation of mouse. In kind it is in vivo.
Data set [2] deals with animals. Description: Unspecific protection against lethality: anoxia by CNK, survival time. To be noted: survival time after CNK. In kind it is in vivo.
Data set [3] is described as follows: LD50 of representative compounds. To be noted: in vivo. The text has this: LD50 of representative compounds included in Table III.

As usually defined, the LD50 is the dose at which mortality reaches 50%. Read a low LD50 as greater toxicity.

Excerpt for mouse: The second trial is the quick decapitation of mouse. The head has a typical mandibular movement, known as gasping, as searching the breathing air.

As for `COc1ccc(Cc2nccc3cc(OC)c(OC)cc23)cc1OC` [Papaverine], in the data set with anesthetized dogs (DOSE 0.5 mg/kg), the EFFECT result is “Active”.

On to `O=C1NC(=O)C(c2ccccc2)(c2ccccc2)N1` [Difenilhydantoine, reference compound], for which the “HYPOXIA HYPOBARA” value in the data set on animals [1] (DOSE 100mg/kg) is “Active”. For the same compound, the GASPING result in the data set on mouse (DOSE 100mg/kg) is recorded as “Very active”. In addition, in the data set with animals [2] (DOSE 100mg/kg), the “ANOXIA BY CNK” value is given as “Active”.

Take `CC1CC(OC(=O)CN2CCCC2=O)CC(C)(C)C1` (mixture of isomers) [cis/trans 3,3,5-trimethylcyclohexyl 2-oxo-l-pyrrolidineacetate]: in the data set with anesthetized dogs (DOSE 1 mg/kg), the EFFECT entry is “Active”. Further, the “HYPOXIA HYPOBARA” value in the data set on animals [1] (DOSE 500mg/kg) was “Active”. For the same compound, the GASPING result with mouse (DOSE 500mg/kg) is “Very active”. The “ANOXIA BY CNK” value in the data set with animals [2] (DOSE 500mg/kg) was “Very active”. This compound gave an LD50 in data set [3] of 3170 mg/kg.

For `O=C(O)c1cccnc1` [Nicotinic acid], in the data set with anesthetized dogs (no dose given), the EFFECT entry is “No effect”.

For `CCC(C(=O)OC1CC(C)CC(C)(C)C1)N1CCCC1=O` (stereo not drawn) [cis 3,3,5-trimethylcyclohexyl 2-(2-oxo-l-pyrrolidinyl)butyrate], in the data set with anesthetized dogs (DOSE 0.5 mg/kg), the EFFECT result was “Active”. Also, the “HYPOXIA HYPOBARA” value in the data set with animals [1] (DOSE 500mg/kg) is reported as “Active”. Moreover, the GASPING entry in the data set on mouse (DOSE 500mg/kg) was “Very active”. Also, the “ANOXIA BY CNK” value in the data set with animals [2] (DOSE 500mg/kg) is “Very active”. For the same compound, the LD50 in data set [3] worked out at 2850 mg/kg.

For `NC(=O)CN1CCCC1=O` [Piracetam, 2-oxo-1-pyrrolidineacetamide, reference compound], the EFFECT result with anesthetized dogs (no dose given) is recorded as “No effect”. Also, the “HYPOXIA HYPOBARA” value in the data set on animals [1] (DOSE 1000mg/kg) is reported as “No effect”. The GASPING result in the data set on mouse (DOSE 1000mg/kg) is reported as “No effect”. Also, the “ANOXIA BY CNK” value in the data set on animals [2] (DOSE 1000mg/kg) is recorded as “No effect”.
